# Source: patent US7037656B2, “Methods and compositions for identifying ligands for nuclear receptors” (priority 2000, dated 2006)
# What was measured:
# Experiment in all cases: Yeast 6x EcRE-lacZ β-galactosidase transactivation assay
# [1] = target: T1, Dm ΔN EcR + Cf USP + GRIP1 (Drosophila melanogaster, UniProt P34021); assay type: cell-based, Drosophila melanogaster; Choristoneura fumiferana; details: RH 5992 10 μM, 4 hours, DMSO control 1.149
# T1 construct: ubiquitin (human, 76 aa) (N, cleaved yes); expressed in transfected cells
# T1 sequence (P34021 221-878 limits assumed, stated change not applied): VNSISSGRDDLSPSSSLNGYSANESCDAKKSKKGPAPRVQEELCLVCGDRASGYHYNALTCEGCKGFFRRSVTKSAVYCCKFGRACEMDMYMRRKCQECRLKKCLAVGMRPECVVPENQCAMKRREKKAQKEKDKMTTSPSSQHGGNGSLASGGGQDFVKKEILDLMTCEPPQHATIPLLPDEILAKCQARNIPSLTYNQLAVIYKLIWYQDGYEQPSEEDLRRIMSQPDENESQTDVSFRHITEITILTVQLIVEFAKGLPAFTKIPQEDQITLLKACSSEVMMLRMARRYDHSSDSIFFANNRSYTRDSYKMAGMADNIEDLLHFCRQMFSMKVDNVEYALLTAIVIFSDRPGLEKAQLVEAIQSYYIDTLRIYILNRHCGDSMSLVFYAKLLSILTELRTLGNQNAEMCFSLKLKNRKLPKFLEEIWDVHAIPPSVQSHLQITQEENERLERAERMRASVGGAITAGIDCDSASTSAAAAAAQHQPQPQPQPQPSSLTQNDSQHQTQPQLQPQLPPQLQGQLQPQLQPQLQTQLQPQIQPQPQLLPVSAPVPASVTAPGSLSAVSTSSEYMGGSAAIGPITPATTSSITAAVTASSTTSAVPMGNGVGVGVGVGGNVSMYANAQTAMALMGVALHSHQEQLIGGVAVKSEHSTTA
# T1 sequence (O76202 whole entry partner): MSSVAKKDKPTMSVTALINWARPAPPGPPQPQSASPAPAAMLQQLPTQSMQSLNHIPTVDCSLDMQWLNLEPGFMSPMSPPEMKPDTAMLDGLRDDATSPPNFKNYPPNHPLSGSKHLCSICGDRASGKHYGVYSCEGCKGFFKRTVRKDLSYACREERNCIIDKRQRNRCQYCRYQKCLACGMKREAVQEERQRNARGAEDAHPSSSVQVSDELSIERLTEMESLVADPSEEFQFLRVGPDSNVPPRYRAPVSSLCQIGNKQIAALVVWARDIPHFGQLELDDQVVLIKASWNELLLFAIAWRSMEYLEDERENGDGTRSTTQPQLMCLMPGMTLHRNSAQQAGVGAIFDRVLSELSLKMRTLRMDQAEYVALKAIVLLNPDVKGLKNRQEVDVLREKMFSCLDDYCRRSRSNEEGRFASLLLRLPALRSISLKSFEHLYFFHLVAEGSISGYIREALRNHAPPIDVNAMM
# T1 sequence (Q61026 322-1121 partner limits assumed): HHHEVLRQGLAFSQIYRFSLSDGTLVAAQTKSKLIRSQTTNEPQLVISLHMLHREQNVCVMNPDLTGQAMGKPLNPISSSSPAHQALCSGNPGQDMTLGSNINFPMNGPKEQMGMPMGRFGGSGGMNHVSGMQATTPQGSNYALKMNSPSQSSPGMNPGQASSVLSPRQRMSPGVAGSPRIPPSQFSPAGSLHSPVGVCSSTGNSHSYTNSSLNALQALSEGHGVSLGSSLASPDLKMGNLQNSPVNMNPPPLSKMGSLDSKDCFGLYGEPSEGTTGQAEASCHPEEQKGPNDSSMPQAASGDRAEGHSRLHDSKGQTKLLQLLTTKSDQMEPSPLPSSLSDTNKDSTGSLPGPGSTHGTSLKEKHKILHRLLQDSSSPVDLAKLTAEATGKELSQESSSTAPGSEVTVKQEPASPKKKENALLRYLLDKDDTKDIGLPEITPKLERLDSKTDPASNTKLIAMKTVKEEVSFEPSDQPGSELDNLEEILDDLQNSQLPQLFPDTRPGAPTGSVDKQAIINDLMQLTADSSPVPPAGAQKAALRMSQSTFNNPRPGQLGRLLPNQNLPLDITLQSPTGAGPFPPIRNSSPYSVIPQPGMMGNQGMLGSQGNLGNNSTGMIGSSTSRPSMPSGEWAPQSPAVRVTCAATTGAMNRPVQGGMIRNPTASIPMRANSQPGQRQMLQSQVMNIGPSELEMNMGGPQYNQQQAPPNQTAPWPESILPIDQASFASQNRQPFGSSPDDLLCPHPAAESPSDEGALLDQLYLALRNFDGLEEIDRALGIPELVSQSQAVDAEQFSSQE
# Protocol: (§1) Briefly, yeast cells are cultured in 5 mL of YPD liquid medium overnight at 30° C. The cell culture was diluted 1:20 in YPD media and further grown until cell density reached an O.D of 0.6. at OD600. The cells were pelleted by centrifugation and washed with 10 mL of TE+0.1M lithium acetate. Cells are then resuspended in 10 mL TE+0.1M lithium acetate and incubated at 30° C. for 1 hour. Cells are collected and resuspended in 0.5 mL of TE+ 0.1M lithium acetate. Aliquots of cells (50 μL), were incubated for 15 minutes at 30° C. with 1–2 μg plasmid DNA in the presence of 5 μg of denatured salmon sperm DNA as DNA carrier. In the case of co-transformation, the indicated plasmids were added simultaneously. 50% polyethyleneglycol of molecular weight 4000, diluted in TE, was added to a final concentration of 35%. […]
# (§2) Using the transformation method set forth above, yeast were co-transformed with a reporter gene as shown in FIG. 2 and the expression vector encoding the full-length D. melanogaster ecdysone receptor, DmEcR (FIG. 3A) in the presence or absence of the Dm EcR heterodimer partner, DmUSP (FIG. 4A). […] As the N-terminal portion of the Dm EcR receptor is reported to play a role in ligand independent transactivation, an expression vector containing an N-terminal deletion in the EcR was constructed (see FIG. 3B) and assessed in the β-galactosidase assays described above. […]
# [2] = target: T2, Dm ΔN EcR +Cf ΔA/B USP + GRIP1 (Drosophila melanogaster, UniProt P34021); assay type: cell-based, Drosophila melanogaster; Choristoneura fumiferana; details: RH 5992 10 μM, 4 hours, DMSO control 0.235
# T2 construct: ubiquitin (human, 76 aa) (N, cleaved yes); expressed in transfected cells
# T2 sequence (P34021 221-878, stated change not applied): as the sequence (P34021 221-878 limits assumed, stated change not applied) above
# T2 sequence (O76202 with tags, fused parts or gaps partner): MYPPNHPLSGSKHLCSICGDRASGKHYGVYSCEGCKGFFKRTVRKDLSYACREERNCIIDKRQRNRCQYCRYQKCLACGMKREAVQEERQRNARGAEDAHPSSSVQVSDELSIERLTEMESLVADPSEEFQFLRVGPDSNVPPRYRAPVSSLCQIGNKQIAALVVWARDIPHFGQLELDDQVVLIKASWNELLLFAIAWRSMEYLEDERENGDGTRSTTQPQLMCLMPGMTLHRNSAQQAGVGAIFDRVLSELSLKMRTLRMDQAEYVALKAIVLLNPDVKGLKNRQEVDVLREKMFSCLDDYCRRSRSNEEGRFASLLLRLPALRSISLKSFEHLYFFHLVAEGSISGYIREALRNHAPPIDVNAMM
# Protocol: as §1, §2
# [3] = target: T3, Cf ΔA/B EcR + RXR α + GRIP1 (Choristoneura fumiferana, UniProt O77240); assay type: cell-based, Choristoneura fumiferana; human; details: RH 5992 10 μM, 4 hours, DMSO control 0.270
# T3 construct: human ubiquitin (76 aa) (N, cleaved yes); expressed in transfected cells; host or cells: yeast (Saccharomyces cerevisiae)
# T3 sequence (O77240 entry or part of it, stated change not applied): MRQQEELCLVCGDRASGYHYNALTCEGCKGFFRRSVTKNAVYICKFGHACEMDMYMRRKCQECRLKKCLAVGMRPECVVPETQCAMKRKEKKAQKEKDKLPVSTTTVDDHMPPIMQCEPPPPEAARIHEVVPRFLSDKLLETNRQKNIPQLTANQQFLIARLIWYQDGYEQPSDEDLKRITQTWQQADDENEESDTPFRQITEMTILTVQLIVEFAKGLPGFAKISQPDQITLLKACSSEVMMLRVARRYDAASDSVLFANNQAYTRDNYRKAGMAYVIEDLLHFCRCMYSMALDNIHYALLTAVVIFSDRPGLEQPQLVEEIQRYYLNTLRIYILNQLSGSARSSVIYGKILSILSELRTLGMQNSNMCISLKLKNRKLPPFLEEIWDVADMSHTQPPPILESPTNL
# T3 sequence (P19793 whole entry partner): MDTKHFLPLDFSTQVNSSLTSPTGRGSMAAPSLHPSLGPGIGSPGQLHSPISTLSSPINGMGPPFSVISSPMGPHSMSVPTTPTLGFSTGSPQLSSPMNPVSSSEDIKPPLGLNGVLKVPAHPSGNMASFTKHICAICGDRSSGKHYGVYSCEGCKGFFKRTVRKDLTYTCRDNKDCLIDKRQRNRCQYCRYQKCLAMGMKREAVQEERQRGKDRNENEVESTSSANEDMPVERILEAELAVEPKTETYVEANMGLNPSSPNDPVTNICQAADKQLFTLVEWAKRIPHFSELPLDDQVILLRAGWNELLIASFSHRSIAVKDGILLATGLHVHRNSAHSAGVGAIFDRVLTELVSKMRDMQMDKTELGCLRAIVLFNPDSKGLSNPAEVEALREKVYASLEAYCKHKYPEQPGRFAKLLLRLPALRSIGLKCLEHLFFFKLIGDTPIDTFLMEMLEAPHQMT
# Protocol: The human RXR α (Genbank accession number X52773), mouse RXR β (Genbank accession number X66224) or mouse RXR γ (Genebank accession number X66225) subtypes were expressed in yeast-E. coli multicopy 2μ expression plasmids under regulation of CUP1 promoter with the LEU2 selective marker (1).
# as §1, with “35%. DMSO was added to the transformation solution simultaneously to a final concentration 3%. The samples were mixed well by vortexing and incubated for an additional 30 minutes at 30° C. The cell mixture is then heated for 15 minutes at 42° C.” for “35%.”
smiles,measurement,setting,value
"CCc1ccc(C(=O)NN(C(=O)c2cc(C)cc(C)c2)C(C)(C)C)cc1 [RH 5992, tebufenozide]",β-galactosidase activity,[1],1.409
same,β-galactosidase activity,[2],0.590
same,β-galactosidase activity,[3],2.063
